From patent US20210222123A1, “IN VITRO EXPANSION OF DOPAMINERGIC SUBTYPE NEURONAL PROGENITORS DERIVED FROM PLURIPOTENT STEM CELLS” (Wisconsin Alumni Research Foundation, priority 2019, published 2021)
Read-outs that look alike come from different tables or passages of the source.

Legend:
DA NPCs [1] = type: cell-based
Description: FGF8 and SHH are not sufficient for expanding DA NPCs: To determine if and how the DA NPCs can be expanded, a CKK8-based assay for quantifying cell numbers was first established. This assay was based on the absorbance readout from a plate reader to estimate the total cell number by monitoring mitochondrial activity, which was used for primary screening/testing for candidate molecules and validating the hits (FIG. 2A).
The optimal seeding density was first determined by plating increasing numbers of DA NPCs to each well. […] The absorbance reached a plateau when the seeding density was beyond 120,000 cell/well (FIG. 2B), and 20,000 cells/well were used for subsequent assays. Using this optimal seeding density (20,000/well), well-to-well and plate-to-plate variation (FIG. 2C) was examined. There were no obvious well-to-well and plate-to-plate variations (FIG. 2C).
Chemical screening identifies an additional compound that expands DA NPCs: The chemical screening platform was set up using FGF8+SHH as a basal condition, FGF8+SHH+DMSO as a control, and FGF8+SHH+1 as the screening mode. With the standardized screening platform (FIG. 3A), 1,200 small molecules (Tocris Total) were screened and the top 5 candidate compounds that increased the absorbance by >2 folds over the median absorbance (FIG. 3B) were identified. […] induced a 5-fold expansion on top of FGF8+SHH (FIG. 3D). We referred to it as the “FSW” cocktail.
Generation and expansion of DA NPCs: DA NPCs were generated as previously described, in particular FGF8b was added from Day 9 (Chen et al., 2016; Xi et al., 2012) (FIG. 1A). The generated DA NPCs were passaged at 10^6 cells/well on a MATRIGEL™ (1:30; PBS diluted and store in 4° C. for use in 2 weeks) coated 6-well plate as the first passage. After overnight, incubation, the medium was switched to the FSCW cocktail in the expansion medium. FSCW cocktail contained FGF8b (50 ng/ml; Peprotech), SHH (25 ng/ml; Peprotech), CHIR (0.6 μM; Tocris) and WNT-C59 (0.5 μM: Tocris). The expansion medium consisted of DF12 basal medium (ThermoFisher), B27 (100×; ThermoFisher), Glutamax (100×; ThermoFisher) and NEAA (100×; ThermoFisher). The cells were passaged every 5 days at the ratio of 1:3. To digest the cells, the cultures were incubated in PBS-diluted EDTA (1:100; Thermo) at 37° C. for 5 minutes before lifting the cells by adding 2 ml DF12 basal medium using cell lifter (Coring) and collecting the cells into a centrifuge tube. Following centrifugation at 1000 rpm for 2 minutes and removal of the supernatant, the cells were resuspended in the expansion medium with FSCW cocktail and seeded onto the coated plates as described above. Y27632 (10 uM; Tocris) was added overnight to improve cell survival.

DA NPCs [2] = test: DA NPC identity by immunostaining of DA marker co-expression; type: cell-based, human
Protocol: Immunostaining and Quantification: Cells on coverslips/wells were rinsed with PBS and fixed in 4% paraformaldehyde for 20 minutes. After rinsing with PBS twice, cells were treated with 0.3% Triton for 10 min followed by 10% donkey serum for 1 hour before incubating with primary antibodies overnight at 4° C. Cells were then incubated for 1 hour at room temperature with fluorescently-conjugated secondary antibodies (Life Technologies). The nuclei were stained with Hoechst (Ho) (Sigma-Aldrich). Images were taken with a Nikon A1R-Si laser-scanning confocal microscope (Nikon, Tokyo, Japan). The primary antibodies used include the followings: Goat anti-OTX2 (1:1000, R&D), Rabbit anti-LMX1A (1:500, Abcam), […], Goat anti-FOXA2 (1:500, Santa Cruz), Mouse anti-EN1 (1:200, 4G11-C, DSHB), Rat anti-Corin (1:100, R&D Systems), Rabbit anti-TH (1:500, Pel-Freez Biologicals), Mouse anti-TUJ1 (1:500, Santa Cruz Biotechnology), Mouse anti-MAP2 (1:200, Sigma-Aldrich), Rabbit anti-GIRK2 (1:80, Alomone Labs), Rabbit anti-SOX6 (1:1000, Sigma-Aldrich), Mouse anti-Stem121 (1:500, Clonetech). For quantifying DA NPC populations, cells were counted among the total Hoechst labeled nuclei. Three independent cultures (n=3) were analyzed.

[3] = FGF2 alone, 10 to 200 ng/ml, one passage in 5 days

Cc1c[nH]c(-c2cnc(NCCNc3ccc(C#N)cn3)nc2-c2ccc(Cl)cc2Cl)n1 [CHIR, CHIR99021]
expansion of DA NPCs (DA NPCs [1]; CHIR alone, range of doses): expanded the DA NPCs
expansion of DA NPCs (DA NPCs [1]; CHIR at a low dose (0.6 μM)): expanded the DA NPCs
dose window in which DA NPC identity (co-expression of LMX1A and OTX2) was retained (DA NPCs [2]; CHIR alone): 0.6 µM
DA identity (DA NPCs [2]; CHIR alone, concentrations lower or higher than 0.6 μM): loss of DA identity
cellular identity of DA NPCs (DA NPCs [2]; CHIR at a low dose (0.6 μM)): did not alter their cellular identity

Cc1cc(-c2ccc(CC(=O)Nc3ccc(-c4cccnc4)cc3)cc2)ccn1 [WNT-C59]
expansion on top of FGF8+SHH (DA NPCs [1]; WNT-C59 "At 2" (unit not given), FSW cocktail): 5 fold
concentration of maximum effect in the cocktail (DA NPCs [1]; WNT-C59 titration in FSCW cocktail): 0.5 µM
DA identity after induced expansion (co-expression of LMX1A and OTX2) (DA NPCs [2]; on top of FGF8+SHH, 1 passage, 5 days, ratio 1:3): maintained DA identity

FGF2: growth factor reported for expanding pan-NPCs or specified NPCs
cell proliferation (DA NPCs [1]; [3]): induced dramatic cell proliferation
DA NPC identity (co-expression of LMX1A and OTX2) (DA NPCs [2]; [3]): loss of co-expression of LMX1A and OTX2
